For one assay, the system named is CT26 #7 tumors. Kind of assay: Anti-tumor activity in syngeneic Nectin-4 overexpressing CT26 tumor model (CT26 #7). It is filed as in vivo, BALB/c-hCD137 mice. The note with it: 5 mg/kg ip Q3D, 6 doses; from day 7 forward. The protocol:
6-8 weeks old BALB/c-hCD137 female mice were inoculated in the flank with 3×10^5 syngeneic Nectin-4 overexpressing CT26 cells (CT26 #7). When tumors reached around 70 mm^3 size on average, mice were randomized to receive vehicle or 5 mg/kg BCY11863 intraperitoneally every three days (6 doses total). Tumor growth was monitored by caliper measurements until day 14 after treatment initiation.

The next assay deals with T1, rat Nectin-4 (Rattus norvegicus, UniProt D3ZET1).
T1 sequence (D3ZET1 31-509): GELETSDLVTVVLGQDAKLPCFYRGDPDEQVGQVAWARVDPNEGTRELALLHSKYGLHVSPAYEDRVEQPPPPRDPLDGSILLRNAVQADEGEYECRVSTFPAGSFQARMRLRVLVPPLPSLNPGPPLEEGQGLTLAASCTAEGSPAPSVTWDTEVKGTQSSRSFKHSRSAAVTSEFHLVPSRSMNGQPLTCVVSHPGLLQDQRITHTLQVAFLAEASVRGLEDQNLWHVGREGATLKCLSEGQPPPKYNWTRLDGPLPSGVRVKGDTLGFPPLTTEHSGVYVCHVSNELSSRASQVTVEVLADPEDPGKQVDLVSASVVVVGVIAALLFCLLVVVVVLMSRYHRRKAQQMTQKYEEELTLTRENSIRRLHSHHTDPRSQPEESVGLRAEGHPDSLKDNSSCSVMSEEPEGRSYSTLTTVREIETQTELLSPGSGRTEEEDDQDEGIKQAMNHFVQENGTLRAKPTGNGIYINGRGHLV
Kind of assay: SPR direct binding to biotinylated Nectin-4 extracellular domain, rat. An excerpt:
The binding of BCY11863 to its primary target Nectin-4 and CD137 was characterized using surface plasmon resonance (SPR).

For another assay, the target named is human EphA2 (Homo sapiens, UniProt P29317). Kind of assay: SPR (Biacore) binding to immobilized human EphA2. The protocol:
Biacore experiments were performed to determine ka (M^−1s^−1), kd (s^−1), KD (nM) values of BCY13272 binding to human EphA2 protein.
EphA2 were biotinylated with EZ-Link™ Sulfo-NHS-LC-Biotin for 1 hour in 4 mM sodium acetate, 100 mM NaCl, pH 5.4 with a 3× molar excess of biotin over protein. The degree of labelling was determined using a Fluorescence Biotin Quantification Kit (Thermo) after dialysis of the reaction mixture into PBS. For analysis of peptide binding, a Biacore T200 instrument was used with a XanTec CMD500D chip. Streptavidin was immobilized on the chip using standard amine-coupling chemistry at 25° C. with HBS-N (10 mM HEPES, 0.15 M NaCl, pH 7.4) as the running buffer. Briefly, the carboxymethyl dextran surface was activated with a 7 min injection of a 1:1 ratio of 0.4 M 1-ethyl-3-(3-dimethylaminopropyl) carbodiimide hydrochloride (EDC)/0.1 M N-hydroxy succinimide (NHS) at a flow rate of 10 μl/min. For capture of streptavidin, the protein was diluted to 0.2 mg/ml in 10 mM sodium acetate (pH 4.5) and captured by injecting 120 μl onto the activated chip surface. Residual activated groups were blocked with a 7 min injection of 1 M ethanolamine (pH 8.5):HBS-N (1:1). Buffer was changed to PBS/0.05% Tween 20 and biotinylated EphA2 was captured to a level of 500-1500 RU using a dilution of protein to 0.2 μM in buffer. […]
A general note: In SPR one partner is held on a chip, and binding of the other changes the refractive index at the surface.

Starred links: 1 amine or outer side, 2 acyl side, 3 side chain; linkers in the order of their positions; H or OH if unused. Positions of bridges follow the written chain, without caps; N, C: chain ends. Non-standard residues stand in square brackets, D forms with d. Chains are numbered I, II in the order given. X1 = O=C(CCOCCOCCOCCN(CCOCCOCCOCCn1cc(CCC(=O)[*:2])nn1)CCOCCOCCOCCn1cc(CCC(=O)[*:3])nn1)[*:1]; TATA = O=C(CC[*:1])N1CN(C(=O)CC[*:2])CN(C(=O)CC[*:3])C1; d1Nal = N[C@H](Cc1cccc2ccccc12)C(=O)O; Hyp = O=C(O)[C@@H]1C[C@@H](O)CN1; hArg = N=C(N)NCCCC[C@H](N)C(=O)O; tBuAla = CC(C)(C)C[C@H](N)C(=O)O; Nle = CCCC[C@H](N)C(=O)O

Sequence of human EphA2 (P29317 24-976): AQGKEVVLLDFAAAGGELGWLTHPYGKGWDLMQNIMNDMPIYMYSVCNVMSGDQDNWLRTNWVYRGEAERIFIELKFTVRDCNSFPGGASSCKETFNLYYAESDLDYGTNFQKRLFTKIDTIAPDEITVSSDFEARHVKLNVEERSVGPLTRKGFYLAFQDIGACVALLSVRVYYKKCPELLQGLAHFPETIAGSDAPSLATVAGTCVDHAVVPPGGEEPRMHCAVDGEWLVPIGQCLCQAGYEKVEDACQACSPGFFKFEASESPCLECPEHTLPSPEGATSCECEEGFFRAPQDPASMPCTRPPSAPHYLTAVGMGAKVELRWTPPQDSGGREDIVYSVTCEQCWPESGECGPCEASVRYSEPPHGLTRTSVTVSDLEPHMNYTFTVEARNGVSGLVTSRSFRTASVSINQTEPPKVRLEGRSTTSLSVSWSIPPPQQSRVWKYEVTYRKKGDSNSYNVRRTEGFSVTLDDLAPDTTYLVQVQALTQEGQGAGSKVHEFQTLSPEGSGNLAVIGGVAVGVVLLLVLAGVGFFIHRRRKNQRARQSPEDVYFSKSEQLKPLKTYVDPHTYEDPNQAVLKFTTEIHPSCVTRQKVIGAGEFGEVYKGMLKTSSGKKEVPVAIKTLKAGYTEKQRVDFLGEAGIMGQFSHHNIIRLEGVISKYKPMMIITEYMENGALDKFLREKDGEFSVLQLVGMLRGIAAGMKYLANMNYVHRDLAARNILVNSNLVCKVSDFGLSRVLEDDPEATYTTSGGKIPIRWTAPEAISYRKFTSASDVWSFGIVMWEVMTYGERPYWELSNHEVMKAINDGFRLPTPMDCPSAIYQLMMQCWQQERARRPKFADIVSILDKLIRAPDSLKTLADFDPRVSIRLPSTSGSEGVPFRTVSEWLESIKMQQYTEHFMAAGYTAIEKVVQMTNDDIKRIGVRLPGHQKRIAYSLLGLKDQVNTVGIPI

With `CCCC[C@@H]1NC(=O)[C@H](Cc2ccc(O)cc2)NC(=O)[C@@H]2CCCN2C(=O)[C@H](CC(=O)O)NC(=O)[C@H](C)NC(=O)[C@H](Cc2ccccc2)NC(=O)[C@@H]2CSCCC(=O)N3CN(CN(C3)C(=O)CCSC[C@@H](C(=O)N[C@@H](C)C(N)=O)NC1=O)C(=O)CCSC[C@H](NC(C)=O)C(=O)N[C@@H](CC(C)(C)C)C(=O)N1CCC[C@H]1C(=O)N[C@@H](CCC(=O)O)C(=O)N[C@H](CCCCNC(=O)CCc1cn(CCOCCOCCOCCN(CCOCCOCCOCCC(=O)N[C@H]3CSCCC(=O)N4CN5CN(C4)C(=O)CCSC[C@H](NC(=O)[C@@H](CC(=O)O)NC(=O)[C@H](Cc4cccc6ccccc46)NC(=O)[C@@H]4CCCN4C3=O)C(=O)N[C@@H](CCSC)C(=O)N[C@@H](CCCCNC(=N)N)C(=O)N[C@@H](CC(=O)O)C(=O)N[C@@H](Cc3c[nH]c4ccccc34)C(=O)N[C@@H](CO)C(=O)N[C@@H]([C@@H](C)O)C(=O)N3CCC[C@H]3C(=O)N3C[C@H](O)C[C@H]3C(=O)N[C@@H](Cc3c[nH]c4ccccc34)C(=O)N[C@H](C(N)=O)CSCCC5=O)CCOCCOCCOCCn3cc(CCC(=O)NCCCC[C@H]4NC(=O)[C@H](CCC(=O)O)NC(=O)[C@@H]5CCCN5C(=O)[C@H](CC(C)(C)C)NC(=O)[C@@H](NC(C)=O)CSCCC(=O)N5CN6CN(C5)C(=O)CCSC[C@H](NC(=O)[C@H](Cc5ccc(O)cc5)NC(=O)[C@@H]5CCCN5C4=O)C(=O)N[C@@H](Cc4ccccc4)C(=O)N[C@@H](C)C(=O)N[C@@H](CC(=O)O)C(=O)N4CCC[C@H]4C(=O)N[C@@H](Cc4ccc(O)cc4)C(=O)N[C@@H](CCCC)C(=O)N[C@H](C(=O)N[C@@H](C)C(N)=O)CSCCC6=O)nn3)nn1)C(=O)N1CCC[C@H]1C(=O)N[C@@H](Cc1ccc(O)cc1)C(=O)N2` [BCY11863], in the assay on CT26 #7 tumors, the tumor growth result is given as “significantly (p<0.0001, Student's t-test) reduced the tumor growth”. Moreover, the Kd (as a rule, a measure of binding affinity in units of concentration) at rat Nectin-4 (KD, biotinylated ECD captured on streptavidin chip) is 5 to 27 nM; at rat Nectin-4 (SPR KD Rat (25° C.), Direct Binding, biotinylated Nectin-4 extracellular domain, 25° C.), 15 ± 1 nM.
Regarding “I: A[hArg]DC[Hyp]LVNPLCLEP[d1Nal]WTC-NH2 / II: Ac-C[tBuAla]PE[dK]PYCFADPY[Nle]CA-NH2 / III: Ac-C[tBuAla]PE[dK]PYCFADPY[Nle]CA-NH2 (linker I:4-I:11-I:18, II:1-II:8-II:15, III:1-III:8-III:15 via TATA; linker I:N-II:5-III:5 via X1) [BCY13272]”, the Kd at human EphA2 was found to be 2 nM.

For the origin of these results see US20230129258A1, “HETEROTANDEM BICYCLIC PEPTIDE COMPLEXES” (BicycleTx Limited, priority 2019, published 2023).
